# Measurements taken from US20080167532A1, “ASSESSING CANCER TREATMENT RESPONSIVENESS” (Mayo Foundation for Medical Education and Research, priority 2006, published 2008).
# “Also recorded” adds a separate entry of the source.
# Experiments:
# Type in all cases: cell-based, human
# [1] = test system: DRO cells; assay: Affymetrix Plus 2.0 array, nucleic acid expression in DRO cells in cell culture; settings: 10 nM single dose
# Procedure: Affymetrix Plus 2.0 arrays were used to identify nucleic acids altered between control vehicle-treated and RS5444-treated ATC cells from cell culture and tumors implanted ectopically into athymic nude mice. Cells in culture were treated with a single dose of 10 nM RS5444 for either 2, 6, or 24 hours. Animals were treated with 0.025% RS5444 after implantation of 1×10^6 DRO cells. Animals were fed a diet including 0.025% RS5444 for 35 days, and tumor volume was measured weekly. Tumor tissues were removed, RNA was isolated, and nucleic acid expression was analyzed. Examples of some nucleic acids, the expression of which was altered in both the animal derived tumors and cells in culture, are presented in Table 1. Some of the nucleic acids regulated by PPARγ in ATC cells (e.g., BMP2, MMP14, ANGPTL4, and ITGA5) are secreted polypeptides (Table 1).
# [2] = test system: DRO cells; assay: Real-time PCR of RhoB and p21 RNA in DRO cells; settings: 10 nM vs DMSO, time course
# Procedure: Experiments also were conducted to examine the expression of RhoB in response to treatment with a PPARγ agonist. Cells from the human ATC cell line, DRO, were treated at various time points during 48 hours with DMSO control (0.1%) or 10 nM RS5444. RhoB and p21^WAF1/CIP1 RNA levels were measured using real-time PCR. Data were normalized to DMSO untreated controls for each time point measured.
# Total mRNA was isolated from cells using RNAqueous (Ambion) per the manufacturer's protocol followed by ethanol precipitation. Total RNA from normal thyroid tissue was extracted using TOTALLY RNA (Ambion) according to manufacturer's protocol followed by Chroma Spin Column 100 (BD Bioscience). Two-step quantitative reverse transcriptase-mediated real-time PCR (QPCR) was used to measure changes in mRNA levels of target genes in ATC cells. Total RNA was reverse transcribed using the High-Capacity cDNA Archive kit (Applied Biosystems) per the manufacturer's instructions. […] Forty amplification cycles were performed on the Applied Biosystems Prism 7900 sequence detector, with cycle threshold (Ct) values calculated using the Sequence Detection System software (SDS 2.2.2. Applied Biosystems) normalized against 18S rRNA levels. Fold change values either between treated (RS5444) and control samples were calculated using the ΔΔCt method (Livak and Schmittgen, Methods, 25:402-408 (2001)).
# [3] = test system: DRO cells; assay: Western blot of RhoB, RhoA, p21, cyclin E polypeptides in DRO cells
# Procedure: RhoB and p21^WAF1/CIP1 polypeptide expression also was examined in ATC cells to determine the time course of induction of each polypeptide following stimulation with a PPARγ agonist (FIG. 6). […]. Polypeptide lysates were prepared and examined for RhoB, RhoA and β-actin expression. […]; FIG. 6A).
# The time course for induction of RhoB and p21^WAF1/CIP1 was determined using Western blotting.
# DRO90-1 (DRO) and ARO81 (ARO) cells were derived from primary cultures of human anaplastic thyroid carcinoma tumors that were obtained from Dr. G. J. Juillard (University of California-Los Angeles, Los Angeles, Calif.), and KTC-2 and KTC3 cells were obtained from Dr. Junichi Kurebayashi (Podtcheko et al., J. Clin. Endocrinol. Metab., 88:1889-1896 (2003) and Pushkarev et al., Molecular mechanisms of the Effects of Low Concentrations of Taxol in Anaplastic Thyroid Cancer Cells. Endocrinology: en. 2004-0127 (2004)). Cells were cultured in RPMI 1640 medium (Cellgro, Herndon Va.) supplemented with 10% charcoal-stripped fetal bovine serum (Hyclone), non-essential amino acids, sodium pyruvate, and penicillin-streptomycin-amphotericin B at 37° C. in a humidified atmosphere with 5% CO^2. Charcoal-stripped serum was used to exclude endogenous PPAR ligands contained in serum. For proliferation studies, cells were plated in triplicate in 12-well culture plates at initial concentrations of 2×10^4 cells/well. After overnight incubation, cells were treated with 10 nM RS5444 or DMSO diluent (Sigma) for 6 days with medium, and drug changed every 48 hours. After 6 days, cells were washed with PBS (Cellgro), trypsinized, and counted by Beckman Coulter Counter (Beckman Instruments, Fullerton Calif.). For morphology studies, cells were plated in 12 well plates at initial concentrations of 2.5×10^4 cells/well. Cells were treated with either DMSO or 10 nM RS5444 (24 hours). After treatment, phase images were obtained on an inverted microscope. For real time PCR studies, cells were plated in 60 mm plates at 50% confluence and treated with 10 nM RS5444 for indicated incubation periods. […].
# Cells were collected and lysed in RIPA buffer containing 50 mM Tris, 5 mM EDTA, 150 mM NaCl, 0.1% SDS, 0.5% Deoxycholate, 1% NP40, and protease inhibitor cocktail (Roche) followed by centrifugation. Excised tumor tissues were lysed in 50 mM Tris pH 8.0+1% SDS. Collected supernatants were, analyzed for protein concentration using Pierce's BCA assay, with 25 μg protein loaded per gel lane (Invitrogen) with later transfer to Immobilon-P membranes. The membranes were hybridized with antibodies (Santa Cruz, Cell Signaling, Sigma-Aldrich, St. Louis Mo.) as indicated overnight at 4° C. followed by treatment with species-specific horseradish peroxidase IgG (Jackson labs) for 45 minutes at room temperature. Detection was performed using Supersignal West Pico chemoluminescence kit (Pierce). Quantification of bands was performed in triplicate using Image Quant 5.2 (Molecular Dynamics, Sunnyvale Calif.).
smiles,measurement,setting,value
Cc1cc(Oc2ccc3nc(COc4ccc(CC5SC(=O)NC5=O)cc4)n(C)c3c2)cc(C)c1N (centres unmarked) [RS5444],"Fold change in vitro, ADRB1","[1]; ADRB1, 2 h",−3.3 fold
same,"Fold change in vitro, ADRB1","[1]; ADRB1, 24 h",−2.2 fold
same,"Fold change in vitro, ANGPTL4","[1]; ANGPTL4, 2 h",5.3 fold
same,"Fold change in vitro, ANGPTL4","[1]; ANGPTL4, 6 h",4.9 fold
same,"Fold change in vitro, ANGPTL4","[1]; ANGPTL4, 24 h",8.4 fold
same,"Fold change in vitro, BMP2","[1]; BMP2, 24 h",2.5 fold
same,"Fold change in vitro, HR",[1]; 2 h,2 fold
same,"Fold change in vitro, HR",[1]; 24 h,2.3 fold
same,"Fold change in vitro, IL1B","[1]; IL1B, 24 h",14.2 fold
same,"Fold change in vitro, ITGA5","[1]; ITGA5, 24 h",2.2 fold
same,"Fold change in vitro, LMAN1","[1]; LMAN1, 6 h",−2 fold
same,"Fold change in vitro, MMP14","[1]; MMP14, 2 h",5.4 fold
same,"Fold change in vitro, MMP14","[1]; MMP14, 24 h",16.9 fold
same,"Fold change in vitro, RhoB",[1]; 2 h,3.4 fold
same,"Fold change in vitro, RhoB",[1]; 6 h,4.1 fold
same,"Fold change in vitro, RhoB",[1]; 24 h,2.8 fold
same,RhoB mRNA levels (real-time PCR),[2],RhoB mRNA induction as early as 2 hours; also recorded: significantly elevated at 12 hours through 48 hours
same,RhoA polypeptide expression (Western blot),[3]; 10 nM RS5444,no change in RhoA polypeptide expression; also recorded: no change in RhoA polypeptide levels
same,Cyclin E levels (Western blot),"[3]; 10 nM, at 24 hours, not at earlier time points",down-regulated
same,"RhoB polypeptide level, time course (Western blot)","[3]; 10 nM, up to 24 hours",significantly elevated at 6 hours
same,"p21WAF1/CIP1 polypeptide level, time course (Western blot)","[3]; 10 nM, up to 24 hours",significantly elevated at 6 hours
same,RhoB polypeptide levels (Western blot),"[3]; 24 hours after single treatment, 10 nM RS5444, 100 nM rosiglitazone, 1 μM troglitazone",induced most strongly; also recorded: induced RhoB polypeptide levels
same,RhoB and p21 expression (Western blot),"[3]; 24 hours, 10 nM RS5444, 1 ng/mL FK-228, 10 μM FTI-277",upregulation of both RhoB and p21 expression
